# Entries after “also recorded” stand apart in the source; their conditions may differ. Where two headings read alike, the source gives them in different places.
# What was measured:
# [1] = tested on: MPTP-, haloperidol-, and rotenone-induced models; conditions: cited from earlier work
# [2] = Pharmacokinetics of PA-96 after single oral (p.o.) administration to mice; format: in vivo, CD-1 mice; conditions: for Tmax / bioavailability / Cmax / half-life / AUC(0-t) / Vd/F: both sexes, CD-1, mouse, whole blood; for Tmax / Cmax / half-life / AUC(0-t) / Vd/F: po; for bioavailability: oral, assessed via AUC of i.v. injection at 1 mg/kg; for Vd/F: read-out: Vz/F_obs
# Experimental: After the development and validation of the method for determination of PA-96 in mice blood, a preliminary pharmacokinetic study was carried out. The agent PA-96 was administered to two mice per os as a suspension in Tween-80 at a dose of 10 mg/kg, and blood samples were taken from the animals at 0.5, 1, 1.5, 2, 2.5, 3, 3.5, 4, 5, 5.5, and 24 h after administration. Four 10 µL samples were taken at each timepoint: two were spotted onto the paper and dried, and two others were precipitated using the ZnSO4 solution. All prepared samples were analysed, and the graph representing the PA-96 peak area values was plotted (Figure 6). […] As such, the PPT method for whole blood samples was chosen for the next experiments.
# After administration, blood samples were taken from the tail vein of each animal at 5, 10, 20, 30, 40, 50, 60, 75, 90, 120, and 150 min, and the samples were prepared following the PPT protocol.
# (§1) The LC–MS/MS analysis was carried out using a Shimadzu LC-20AD Prominence chromatograph equipped with a cooling autosampler, binary gradient pump, and column oven (Shimadzu, Japan) coupled with a 3200 QTRAP mass spectrometer (AB SCIEX, Framingham, MA, USA) equipped with an electrospray ionisation source (ESI). The mass spectrometer worked in positive mode and multiple reaction monitoring (MRM) detection mode for quantitation. Analyst 1.6.2 software (AB SCIEX, Framingham, MA, USA) was used for instrument control and data acquisition, and MultiQuant 2.1 software (AB SCIEX, Framingham, MA, USA) was used for quantitation. To calculate the main pharmacokinetic parameters, the Microsoft Excel plugin PKSolver was used.
# (§2) CD-1 mice (male and female) were obtained from the SPF vivarium of the Institute of Cytology and Genetics, Russia. The mice weighed 25–30 g at the beginning of the experiment.
# An accurately weighed amount of PA-96 was mechanically mixed with Tween-80 using a mortar and pestle followed by suspending the obtained sample in physiological solution. The animals (n = 2) received a single dose of 10 mg/kg per os (p.o.). The timepoints were 0.5, 1, 1.5, 2, 2.5, 3, 3.5, 4, 5, 5.5, and 24 h. At each timepoint, 10 µL of blood was taken from the tail vein, and the sample was prepared by DBS and PPT with ZnSO4 in methanol. Afterwards, the samples were analysed in accordance with the HPLC–MS/MS protocol.
# In the next experiment, the sampling scheme was optimised by changing the timepoints as follows: 5, 10, 20, 30, 40, 50, 60, 75, and 90 min, and 2, 2.5, 3, 3.5, 4, and 5 h; this was in order to investigate the pharmacokinetics more thoroughly. The experiment design was not changed, but the sample preparation was carried out by the PPT method exclusively.
# In order to investigate the bioavailability and dose proportionality, PA-96 was administered p.o. at the dosages of 1, 5, and 10 mg/kg and intravenously (i.v.) at the dosages of 1 and 10 mg/kg. For each experiment, we used 6–7 mice. The blood was drawn from the tail vein at the following timepoints: 3, 5, 10, 15, 30, 45, 60, 90, 120, and 150 min. The samples were prepared and analysed.
# [3] = Pharmacokinetics of PA-96 after intravenous (i.v.) injection to mice; format: in vivo, CD-1 mice; conditions: for AUC(0-t) / Cmax / Tmax / half-life: both sexes, CD-1, mouse, whole blood, iv
# Experimental: To evaluate the bioavailability of the agent PA-96, a suspension of the compound with Tween-80 was administered intravenously at doses of 1 and 10 mg/kg. After administration, blood in an amount of approximately 10 µL was collected from the tail vein of each animal at 5, 10, 15, 30, 45, 60, 90, 120, and 150 min, and samples were prepared following the PPT protocol.
# Therefore, it was necessary to widen the operating concentration range of the calibration curve. To quantify PA-96 in these blood samples, we prepared and analysed spikes containing the agent in concentrations of 530, 1325, 2650, 3530, 8800, 10,600, and 21,200 ng/mL, which were used to construct a high-concentration calibration curve. In addition to these calibrators, quality control samples were prepared containing PA-96 at the concentrations of 1760, 5300, and 17,100 ng/mL (QCL, QCM, and QCH, respectively). […] As the objective of building this calibration curve was to evaluate the concentration of PA-96 only in several samples, the full validation of this expansion of the developed bioanalytical method was not performed.
# as §1, §2
# In order to investigate the bioavailability and dose proportionality, PA-96 was administered p.o. at the dosages of 1, 5, and 10 mg/kg and intravenously (i.v.) at the dosages of 1 and 10 mg/kg. […] The blood was drawn from the tail vein at the following timepoints: 3, 5, 10, 15, 30, 45, 60, 90, 120, and 150 min. The samples were prepared and analysed.
# [4] = tested on: cultured naïve dopamine neurons; design: method as in PMID 36500381; conditions: in vitro; cited from earlier work
# [5] = animal MPTP and haloperidol models of PD
# [6] = 5 mg/kg, single p.o., mice, mean ± SEM, n = 4
# [7] = 10 mg/kg, single p.o., mice, mean ± SEM, n = 4
# [8] = single p.o., 5 mg/kg, mice, mean ± SEM, n = 4
# [9] = single p.o., 10 mg/kg, mice, mean ± SEM, n = 4
smiles,measurement,setting,value
C=C(C)[C@@H]1CC=C(C)[C@@H](Sc2nc[nH]n2)[C@@H]1O [PA-96],Effect on motor deficits,[1]; MPTP and haloperidol-based mice models of Parkinson's disease,alleviated motor deficits
same,Density of tyrosine hydroxylase positive neurons and dopamine concentration in the midbrain,[1]; MPTP-damaged brain,increased
same,Antiparkinsonian activity relative to Prottremine,[1]; [5],more active than Prottremine
same,Dose at which antiparkinsonian effect was displayed,[1]; [5],1 mg/kg
same,Tmax,"[2]; single p.o., 5 mg/kg, mice, mean ± SEM, n = 4, read-out: Tmax (converted)",6.3 min
same,Tmax,"[2]; single p.o., 10 mg/kg, mice, mean ± SEM, n = 4, read-out: Tmax (converted)",8.8 min
same,bioavailability,"[2]; p.o. 5 mg/kg, mice",~7%
same,bioavailability,"[2]; p.o. 10 mg/kg, mice",~35%
same,Cmax,[2]; [6],~36 ng/mL
same,half-life,[2]; [6],44 ± 13 min
same,Cmax,[2]; [7],~588 ng/mL
same,half-life,[2]; [7],15 min
same,Tmax,"[2]; p.o. doses of 5 mg/kg and 10 mg/kg, mice, read-out: Time of maximum concentration after administration",5 to 10 min
same,AUC(0-t),[2]; [8],28.3 ng·h/mL
same,Vd/F,[2]; [8],190 L/kg
same,AUC(0-t),[2]; [9],300 ng·h/mL
same,Vd/F,[2]; [9],13.7 L/kg
same,Signal (concentration) in blood samples,"[2]; p.o. 1 mg/kg, n = 2, mice, LLOQ 25 ng/mL",lower than the LLOQ
same,Time of complete elimination at oral administration,"[2]; p.o. 5 and 10 mg/kg, mice",2.5 to 3 h
same,Increase in both Cmax and AUC on twofold increase in the dose,"[2]; p.o. 5 vs 10 mg/kg, mice",by an order of magnitude
same,Time of complete elimination,"[2]; preliminary study, p.o. 10 mg/kg, n = 2 mice",2.5 h
same,Timepoint of maximum concentration,"[2]; preliminary study, p.o. 10 mg/kg, n = 2 mice, first timepoint sampled",30 min
same,t1/2,[2]; [9],15.2 ± 1.2 min
same,AUC(0-t),"[3]; 1 mg/kg, mean ± SEM, n = 6",85 ng·h/mL
same,Cmax,"[3]; 1 mg/kg, mean ± SEM, n = 6",390 ng/mL
same,Tmax,"[3]; 1 mg/kg, mean ± SEM, n = 6",3.3 min
same,half-life,"[3]; 1 mg/kg, mean ± SEM, n = 6",37 ± 10 min
same,AUC(0-t),"[3]; 10 mg/kg, mean ± SEM, n = 2",2170 ng·h/mL
same,Cmax,"[3]; 10 mg/kg, mean ± SEM, n = 2",> 7700 ng/mL
same,half-life,"[3]; 10 mg/kg, mean ± SEM, n = 2",26.1 ± 2.9 min
same,Tmax,"[3]; 10 mg/kg, n = 2",3 min
same,Concentration level 1 h after administration,[3]; i.v. 1 and 10 mg/kg,several nanograms per mL
same,Time in which concentration decreases twofold after injection,[3]; i.v. 1 and 10 mg/kg,10 to 15 min
same,Increase of AUC when the dose was increased tenfold,[3]; i.v. 1 vs 10 mg/kg,approximately 25 times
same,Increase of Cmax when the dose was increased tenfold,[3]; i.v. 1 vs 10 mg/kg,twentyfold
same,Survival of cultured naïve dopamine neurons,[4],supported the survival; also recorded: improved potency
